Holding throughout (assay type): cell-based
Test [1] deals with Citrobacter diversus. Kind of test: MIC against Gram-negative bacteria: Citrobacter diversus. As to conditions: for MIC against C. diversus: 96-well plate, 37° C., 10 h; for MIC against C. diversus / MIC (μg/mL) C. diversus: 5×10^5 CFU/mL. The method in brief: (§1)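 The recombinant human-originated EGF domain proteins were serially diluted two-fold against bacteria at 5×10^5 CFU/mL in LB medium. After shaken incubation at 37° C, the lowest concentration with no bacterial growth was recorded as the MIC.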

Test [2] deals with Klebsiella pneumonia. Kind of test: MIC against Gram-negative bacteria: Klebsiella pneumonia. The note with it: for MIC against K. pneumonia: 96-well plate, 37° C., 10 h; for MIC against K. pneumonia / MIC (μg/mL) K. pneumonia: 5×10^5 CFU/mL. Put shortly:
as §1

In test [3] the test system is Enterobacter cloacae. As to the kind of experiment: MIC against Gram-negative bacteria: Enterobacter cloacae. As to conditions: for MIC against E. cloacae: 96-well plate, 37° C., 10 h; for MIC against E. cloacae / MIC (μg/mL) E. cloacae: 5×10^5 CFU/mL. Put shortly: as §1
Test [4] deals with Aeromonas hydrophila. As to the kind of experiment: MIC against Gram-negative bacteria: Aeromonas hydrophila. As to conditions: for MIC against A. hydrophila: 96-well plate, 37° C., 10 h; for MIC against A. hydrophila / MIC (μg/mL) A. hydrophila: 5×10^5 CFU/mL. The method in brief:
as §1

Test [5] deals with E. coli DH5α. As to the kind of experiment: Antibacterial activity: MIC and growth curve against E. coli DH5α in 96-well plate. As to conditions: minimal inhibitory concentration against E. coli DH5α; 96-well plate, 5×10^5 CFU/mL, 37° C., judged after 8 h. Put shortly: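 MIC taken as lowest protein level with no bacterial growth, tracked by A600 every 30 min during 37 °C, 175 rpm culture. Two-fold protein series 50-12.5 μg/mL final, triplicate wells, against 5×10^5 CFU/mL of LB-washed mid-log cells.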

Test [6] relates to Moraxella catarrhalis. Kind of test: MIC against Gram-negative bacteria: Moraxella catarrhalis. As to conditions: for MIC against M. catarrhalis: 96-well plate, 37° C., 10 h; for MIC against M. catarrhalis / MIC (μg/mL) M. catarrhalis: 5×10^5 CFU/mL. Put shortly:
as §1

For test [7], the system named is Proteus vulgaris. Kind of test: MIC against Gram-negative bacteria: Proteus vulgaris. The note with it: for MIC against P. vulgaris: 96-well plate, 37° C., 10 h; for MIC against P. vulgaris / MIC (μg/mL) P. vulgaris: 5×10^5 CFU/mL. The method in brief:
as §1

In test [8] the test system is E. coli BL21. As to the kind of experiment: MIC against Gram-negative bacteria: E. coli BL21. As to conditions: for MIC against E. coli BL21: 96-well plate, 37° C., 10 h; for MIC against E. coli BL21 / MIC (μg/mL) E. coli BL21: 5×10^5 CFU/mL. The method in brief: as §1
Test [9] concerns Pseudomonas aeruginosa. As to the kind of experiment: MIC against Gram-negative bacteria: Pseudomonas aeruginosa. The note with it: for MIC against P. aeruginosa: 96-well plate, 37° C., 10 h; for MIC against P. aeruginosa / MIC (μg/mL) P. aeruginosa: 5×10^5 CFU/mL. Put shortly:
as §1

Test [10] deals with Proteus mirabilis. Kind of test: MIC against Gram-negative bacteria: Proteus mirabilis. The note with it: for MIC against P. mirabilis: 96-well plate, 37° C., 10 h; for MIC against P. mirabilis / MIC (μg/mL) P. mirabilis: 5×10^5 CFU/mL. The method in brief: as §1
For test [11], the system named is Serratia marcescens. As to the kind of experiment: MIC against Gram-negative bacteria: Serratia marcescens. As to conditions: for MIC against S. marcescens: 96-well plate, 37° C., 10 h; for MIC against S. marcescens / MIC (μg/mL) S. marcescens: 5×10^5 CFU/mL. The method in brief: as §1
[12] abbreviates: C. diversus, 10 h cultivation at 37° C.
[13] abbreviates: K. pneumonia, 10 h cultivation at 37° C.
Where [14] appears, read: E. cloacae, 10 h cultivation at 37° C.
Setting [15] is: A. hydrophila, 10 h cultivation at 37° C.
[16] abbreviates: M. catarrhalis, 10 h cultivation at 37° C.
Where [17] appears, read: P. vulgaris, 10 h cultivation at 37° C.
[18] abbreviates: E. coli BL21, 10 h cultivation at 37° C.
Where [19] appears, read: P. aeruginosa, 10 h cultivation at 37° C.
The mark [20] stands for this setting: P. mirabilis, 10 h cultivation at 37° C.
Where [21] appears, read: S. marcescens, 10 h cultivation at 37° C.

Consider 5 substances from patent publication US9833497B2, “Human originated EGF domain proteins and use of the same” (CHENGDU SOURCEBIO LIMITED-LIABILITY COMPANY, priority 2013, dated 2017).

Consider “PRT1228 (CPPCPKYASCHNSTHCTCEDGFRARSGRTYFHDSSEKCE; listed as Homo sapiens)”, for which, in test [1] (Citrobacter diversus), the “MIC against C. diversus” value stood at 50 µg/mL. The “MIC against K. pneumonia” value in [2] (Klebsiella pneumonia) was 25 µg/mL. Besides, in [3] (Enterobacter cloacae), the “MIC against E. cloacae” value was 12.5 µg/mL. Further, in test [4] (Aeromonas hydrophila), the “MIC against A. hydrophila” value was determined as 25 µg/mL. The MIC (commonly the smallest concentration in the dilution series that meets the test's criterion for growth inhibition) in [5] stood at 12.5 µg/mL. Also, in test [6] (Moraxella catarrhalis), the “MIC against M. catarrhalis” value is 25 µg/mL. Further, in [7] (Proteus vulgaris), the “MIC against P. vulgaris” value was 25 µg/mL. Moreover, the “MIC against E. coli BL21” value in [8] (E. coli BL21) was 25 µg/mL. Also, in test [9] (Pseudomonas aeruginosa), the “MIC against P. aeruginosa” value was 50 µg/mL. For the same substance, the “MIC against P. mirabilis” value in [10] (Proteus mirabilis) came to 12.5 µg/mL. Also, in test [11] (Serratia marcescens), the “MIC against S. marcescens” value was 50 µg/mL.

With “PRT590 (CDCNILGSRRDMPCDEESGRCLCLPNVVGPKCDQCAPYHWKLASGQGCEP; listed as Homo sapiens)”, the “MIC against C. diversus” value in [1] is 12.5 µg/mL. Besides, the “MIC against K. pneumonia” value in test [2] was 25 µg/mL. In test [3], the “MIC against E. cloacae” value came out at 50 µg/mL. Besides, the “MIC against A. hydrophila” value in test [4] came out at 25 µg/mL. The minimal inhibitory concentration (MIC) in test [5] came to 50 µg/mL. In addition, the “MIC against M. catarrhalis” value in test [6] amounted to 25 µg/mL. For the same substance, in test [7], the “MIC against P. vulgaris” value was 25 µg/mL. For the same substance, the “MIC against E. coli BL21” value in [8] turned out to be 25 µg/mL. Further, the “MIC against P. aeruginosa” value in [9] was 12.5 µg/mL. In addition, the “MIC against P. mirabilis” value in test [10] came to 50 µg/mL. Moreover, the “MIC against S. marcescens” value in [11] turned out to be 12.5 µg/mL.

In the case of “PRT790 (HGPQCEQRCPCQNGGVCHHVTGECSCPSGWMGTVCG; listed as Homo sapiens)”, in test [1] (setting [12]), the “MIC (μg/mL) C. diversus” value was 50 µg/mL. Further, in test [2] (setting [13]), the “MIC (μg/mL) K. pneumonia” value was found to be 25 µg/mL. For the same substance, in [3] (setting [14]), the “MIC (μg/mL) E. cloacae” value worked out at 12.5 µg/mL. For the same substance, the “MIC (μg/mL) A. hydrophila” value in [4] (setting [15]) worked out at 25 µg/mL. The minimum inhibitory concentration (MIC) in [5] amounted to 25 µg/mL. The “MIC (μg/mL) M. catarrhalis” value in [6] (setting [16]) is 25 µg/mL. Moreover, in test [7] (setting [17]), the “MIC (μg/mL) P. vulgaris” value is 50 µg/mL. For the same substance, the “MIC (μg/mL) E. coli BL21” value in [8] (setting [18]) was 50 µg/mL. Moreover, in test [9] (setting [19]), the “MIC (μg/mL) P. aeruginosa” value stood at 25 µg/mL. Further, in test [10] (setting [20]), the “MIC (μg/mL) P. mirabilis” value amounted to 12.5 µg/mL. Further, in test [11] (setting [21]), the “MIC (μg/mL) S. marcescens” value was determined as 12.5 µg/mL.

As for “PRT220 (DINECETTNECREDEMCWNYHGGFRCYPRNPCQDPYILTPENRCV; listed as Homo sapiens)”, the “MIC (μg/mL) C. diversus” value in [1] (setting [12]) turned out to be 12.5 µg/mL. In [2] (setting [13]), the “MIC (μg/mL) K. pneumonia” value is 25 µg/mL. Further, the “MIC (μg/mL) E. cloacae” value in test [3] (setting [14]) stood at 12.5 µg/mL. Moreover, the “MIC (μg/mL) A. hydrophila” value in [4] (setting [15]) amounted to 25 µg/mL. Also, in test [5], the minimal inhibitory concentration (MIC) was 25 µg/mL. Besides, the “MIC (μg/mL) M. catarrhalis” value in test [6] (setting [16]) worked out at 12.5 µg/mL. In test [7] (setting [17]), the “MIC (μg/mL) P. vulgaris” value came to 12.5 µg/mL. In addition, the “MIC (μg/mL) E. coli BL21” value in test [8] (setting [18]) was determined as 25 µg/mL. Besides, the “MIC (μg/mL) P. aeruginosa” value in [9] (setting [19]) came to 12.5 µg/mL. In addition, the “MIC (μg/mL) P. mirabilis” value in test [10] (setting [20]) is 12.5 µg/mL. The “MIC (μg/mL) S. marcescens” value in test [11] (setting [21]) worked out at 50 µg/mL.

Take “PRT966 (PSHPCAHEPCSHGICYDAPGGFRCVCEPGWSGPRCS; listed as Homo sapiens)”: the MIC in [1] (setting [12]) was determined as 25 µg/mL; in test [2] (setting [13]), 25 µg/mL; in [3] (setting [14]) it was 12.5 µg/mL; in [4] (setting [15]) it was 50 µg/mL; in [5], 50 µg/mL; in test [6] (setting [16]) it was 12.5 µg/mL. Also, the MIC in test [7] (setting [17]) was found to be 25 µg/mL; in test [8] (setting [18]), 12.5 µg/mL; in test [9] (setting [19]), 50 µg/mL; in test [10] (setting [20]), 50 µg/mL; in test [11] (setting [21]), 12.5 µg/mL.
